According to ChEMBL document CHEMBL1201862, “PubChem BioAssay data set” (2004):
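Tested at 5 concentrations; 48 h exposure; 96-well plates; endpoints linearly interpolated, else capped at highest concentration. Here, GI50 denotes the concentration required for 50% inhibition of growth.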 Active and inactive are the calls of the source. No stated cut-off is given here; in the data, active = GI50 up to about 1.1 µM and inactive = higher.

Key:
Assay in all cases: DTP human tumour cell line panel, 48 h
DLD-1 = tested on: DLD-1
DMS-114 = tested on: DMS-114
DMS-273 = tested on: DMS-273
HOP-18 = tested on: HOP-18
LXFL 529 = tested on: LXFL 529
M19-MEL = tested on: M19-MEL
RXF 631 = tested on: RXF 631
SNB-78 = tested on: SNB-78
XF498 = tested on: XF498

Row | Structure (SMILES) | GI50 (DLD-1) | GI50 (DMS-114) | GI50 (DMS-273) | GI50 (HOP-18) | GI50 (LXFL 529) | GI50 (M19-MEL) | GI50 (RXF 631) | GI50 (SNB-78) | GI50 (XF498)
1 | NC(=O)n1ncc(Cl)c(Cl)c1=O | > 100 µM (inactive) | > 100 µM (inactive) | > 100 µM (inactive) | > 100 µM (inactive) | > 100 µM (inactive) | > 100 µM (inactive) | > 100 µM (inactive) | > 100 µM (inactive) | > 100 µM (inactive)
2 | CC(=O)OC1CCCn2c1nc1c2C(=O)C(C)=C(N2CC2)C1=O (stereo not given) | 0.583 µM (active) | 0.771 µM (active) | 0.15 µM (active) | 0.348 µM (active) | 0.614 µM (active) | 0.392 µM (active) |  | 0.454 µM (active) | 0.234 µM (active)
3 | S=c1[nH]c2ccc(Br)cc2c(=S)n1-c1ccccc1 | 28.7 µM (inactive) | 16.9 µM (inactive) | 17.1 µM (inactive) | 16.5 µM (inactive) |  | 17.6 µM (inactive) | 26 µM (inactive) | 49.3 µM (inactive) | 19.1 µM (inactive)
4 | CCSc1c2ccccc2c(-c2nc(F)nc(F)n2)n1CCc1ccccc1 |  | > 100 µM (inactive) | > 100 µM (inactive) |  | > 100 µM (inactive) | > 100 µM (inactive) | > 100 µM (inactive) | > 100 µM (inactive) | > 100 µM (inactive)
5 | COC(=O)CCC(=O)N1CC1C (stereo not given) | > 100 µM (inactive) | > 100 µM (inactive) | > 100 µM (inactive) | > 100 µM (inactive) | > 100 µM (inactive) | > 100 µM (inactive) |  |  | > 100 µM (inactive)
6 | BrC12c3ccccc3Sc3ccccc3C1(Br)c1ccccc12 (stereo not given) | 33 µM (inactive) | 19.5 µM (inactive) | 36 µM (inactive) | 51.5 µM (inactive) | 20.9 µM (inactive) | 35.2 µM (inactive) | 25.9 µM (inactive) |  | 
7 | COc1ccc(/C=C2\CCC(C)(CN(C)C)C2=O)cc1Br (stereo not given) | 17.3 µM (inactive) | 24.4 µM (inactive) | 18.2 µM (inactive) | 28.8 µM (inactive) | 17.9 µM (inactive) | 17.3 µM (inactive) |  | 38.1 µM (inactive) | 18.8 µM (inactive)
8 | CCOc1ccc(NC(=O)C(=O)NO)cc1 | > 100 µM (inactive) | > 100 µM (inactive) | > 100 µM (inactive) | > 100 µM (inactive) | > 100 µM (inactive) | > 100 µM (inactive) |  | > 100 µM (inactive) | 
9 | Cc1cc(O)nc(CNC(=O)c2cccc3ccccc23)n1 | > 100 µM (inactive) |  | > 100 µM (inactive) |  | > 100 µM (inactive) | > 100 µM (inactive) |  | > 100 µM (inactive) | > 100 µM (inactive)
10 | c1ccc2c(CNCCCCCCNCc3cccc4ccccc34)cccc2c1 | 3.78 µM (inactive) | 7.45 µM (inactive) | 13.6 µM (inactive) | 15.5 µM (inactive) | 1.91 µM (inactive) | 4.2 µM (inactive) | 3.74 µM (inactive) | 9.44 µM (inactive) | 2.42 µM (inactive)
11 | O=c1[nH]c(=O)n(C2OC(COP(=O)(O)OP(=O)(O)O)C(O)C2O)cc1F (stereo not given) | 0.226 µM (active) | 28.5 µM (inactive) | 0.456 µM (active) | > 28 µM (inactive) | 0.555 µM (active) | 1.82 µM (inactive) |  | 5.79 µM (inactive) | 1.69 µM (inactive)
12 | COC1C2C[C@@H](O)CCC2C(C(=O)OCCl)C[C@H]1O (stereo not given in full) | > 100 µM (inactive) | > 100 µM (inactive) | > 100 µM (inactive) | > 100 µM (inactive) | > 100 µM (inactive) | > 100 µM (inactive) | > 100 µM (inactive) | > 100 µM (inactive) | 
13 | N#Cc1cccc(N2C(=O)c3c(c(-c4ccccc4)c(-c4ccc(Sc5ccc(-c6c(-c7ccccc7)c7c(c(-c8ccccc8)c6-c6ccccc6)C(=O)N(c6cccc(C#N)c6)C7=O)cc5)cc4)c(-c4ccccc4)c3-c3ccccc3)C2=O)c1 | > 100 µM (inactive) | 89.5 µM (inactive) | > 100 µM (inactive) |  | 37.7 µM (inactive) |  | > 100 µM (inactive) | 35.1 µM (inactive) | 30.5 µM (inactive)
14 | COCC12CC(CC1=O)C1C2ON2c3ccccc3C(=O)C12c1ccccc1 (stereo not given) | > 100 µM (inactive) | > 100 µM (inactive) | > 100 µM (inactive) | > 100 µM (inactive) | > 100 µM (inactive) |  |  | 68.7 µM (inactive) | > 100 µM (inactive)
15 | CCOC(=O)N1CCC(=O)C[C@@H]1C/C=C/P1(=O)O[C@H](c2ccccc2)C(C)N1C(C)C (stereo not given in full) |  | > 100 µM (inactive) | > 100 µM (inactive) |  | > 100 µM (inactive) | > 100 µM (inactive) |  | > 100 µM (inactive) | 
16 | CC(C)=CCC/C(=C/CC/C(C)=C/CCc1ccoc1)C(=O)O | 84.5 µM (inactive) | > 100 µM (inactive) |  |  | > 100 µM (inactive) | > 100 µM (inactive) |  | > 100 µM (inactive) | > 100 µM (inactive)
17 | CS/C(C)=N/OC(=O)NCCCCNc1ccc(N=[N+]=[N-])cc1 | > 100 µM (inactive) | 13.1 µM (inactive) |  | > 100 µM (inactive) | 24.1 µM (inactive) | 34.6 µM (inactive) | 17.4 µM (inactive) | 82.6 µM (inactive) | 13.8 µM (inactive)
18 | c1csc(C[N+]23CN4CN(CN(C4)C2)C3)c1 | 33.7 µM (inactive) | 20.6 µM (inactive) | 18.9 µM (inactive) |  | 20.3 µM (inactive) | 25.9 µM (inactive) |  |  | 
19 | Cc1c(Cl)cccc1NC(=O)C(=O)C1C(=O)NC(=O)NC1=O | > 100 µM (inactive) |  | > 100 µM (inactive) | > 100 µM (inactive) | > 100 µM (inactive) | > 100 µM (inactive) |  | > 100 µM (inactive) | > 100 µM (inactive)
20 | CSc1ccc(NC(=O)C2c3[nH]c4ccccc4c3C3CCC(C(C)(C)C)CC3C2C(=O)O)cc1 (stereo not given) | 12.6 µM (inactive) | 19.8 µM (inactive) | 16.4 µM (inactive) | 16.9 µM (inactive) | 15.9 µM (inactive) | 21.1 µM (inactive) |  | 17.2 µM (inactive) | 17.9 µM (inactive)
21 | N/C(=N\N=C\c1c[nH]c2ccccc12)Nc1ccccc1 | 0.474 µM (active) | 0.357 µM (active) | 0.506 µM (active) | 17.9 µM (inactive) | 0.504 µM (active) |  |  | 1.08 µM (active) | 
22 | NC1=NC(Cn2nc(-c3ccccc3)c3ccccc3c2=O)=NNC(=O)N1 | > 100 µM (inactive) |  | > 100 µM (inactive) | > 100 µM (inactive) | > 100 µM (inactive) | > 100 µM (inactive) |  | > 100 µM (inactive) | 
23 | COCCNC(=O)C1C(=O)N(CCOC)C(=O)/C1=N/N (stereo not given) | > 100 µM (inactive) |  | > 100 µM (inactive) |  | > 100 µM (inactive) | > 100 µM (inactive) |  | > 100 µM (inactive) | > 100 µM (inactive)
24 | C[S+]([O-])c1ccc(COP(N)(=O)N(CCCl)CCCl)cc1 (stereo not given) | > 100 µM (inactive) | > 100 µM (inactive) | > 100 µM (inactive) |  | > 100 µM (inactive) | > 100 µM (inactive) |  | > 100 µM (inactive) | > 100 µM (inactive)
